The values that follow come from US20230331691A1, “TREPROSTINIL DERIVATIVE COMPOUNDS AND METHODS OF USING SAME” (CORSAIR PHARMA, INC., priority 2013, published 2023).

Common to all, as to format: in vitro ADME
A short description of series [1]: Human liver microsomal stability assay (Test 1). The settings on record: human liver microsomes, 0.5 uM test compound, 37° C., up to 45 minutes, pH 7.4, NADPH generating system; read-out: Test 1 T½. The protocol:
(§1) (Test 1) Human liver microsomal stability assay was conducted by incubating 0.5 uM test compounds at 37° C. for up to 45 minutes in 50 mM of potassium phosphate buffer (pH 7.4) containing 0.5 mg of microsomal protein and 50 µL of NADPH generating system (7.8 mg of glucose 6-phosphate, 1.7 mg of NADPH and 6 U of glucose 6-phosphate dehydrogenase per mL in 2% w/v of sodium bicarbonate). At 0, 5, 15, 30 and 45 min., an aliquot was taken, quenched with internal standard containing stop solution. No co-factor controls at 45 minutes were also prepared. After incubation, the samples were analyzed by LC-MS/MS. Peak area ratios of analyte to internal standard were used to calculate the intrinsic clearance. The intrinsic clearance (CLint) was determined from the first order elimination constant by non-linear regression. Formation of the active drug Compound A over the time course was also monitored by LC-MS/MS analysis.

A short description of series [2]: Human plasma stability assay (Test 2). The settings on record: heparinated human plasma, 0.5 uM test compound, 37° C., up to 120 minutes; read-out: Test 2 T½. The protocol:
(Test 2) Human plasma stability assay was conducted by incubating 0.5 uM test compounds at 37° C. for up to 120 minutes in heparinated human plasma. At 0, 5, 15, 30, 60 and 120 […] min., an aliquot was taken, quenched with internal standard containing stop solution. After incubation, the samples were analyzed by LC-MS/MS. Peak area ratios of analyte to internal standard were used to calculate the half-life. Formation of the active drug Compound A over the time course was also monitored by LC-MS/MS analysis.

Series [3] is described as follows: Human skin homogenate stability assay (Test 3). To be noted: 0.5 uM test compound, 37° C., up to 45 minutes, pH 7.4, NADPH generating system, read-out: Test 3 T½. As to the method:
as §1, with “3)” for “1)”, “skin homogenate” for “liver microsomal”, “conducted in a similar way as the human liver microsomal stability assay,” for “conducted”, “human skin homogenate” for “microsomal”

The structures appear in SMILES notation.

Consider `CCCCC[C@H](O)CC[C@@H]1[C@H]2Cc3cccc(OCC(=O)OC(C)C(C)(C)C)c3C[C@H]2C[C@H]1O` (stereo partly shown) [Compound 18, [2-Hydroxy-1-(3-hydroxy-octyl)-2,3,3a,4,9,9a-hexahydro-1H-cyclopenta[b]naphthalen-5-yloxy]-acetic acid 1,2,2-trimethyl-propyl ester], for which the values for the half-life at 0.5 uM in series [1], in series [2] and in series [3] were below 15 min, above 60 min and above 60 min, respectively.

As for `CCCCC[C@H](O)CC[C@@H]1[C@H]2Cc3cccc(OCC(=O)OC4CC5CCC4C5)c3C[C@H]2C[C@H]1O` (stereo partly shown) [Compound 19, [2-Hydroxy-1-(3-hydroxy-octyl)-2,3,3a,4,9,9a-hexahydro-1H-cyclopenta[b]naphthalen-5-yloxy]-acetic acid bicyclo[2.2.1]hept-2-yl ester], the figures for the half-life at 0.5 uM in series [1], in series [2] and in series [3] were below 15 min, 31 to 60 min and 15 to 30 min, respectively.

Turning to `CCCCC[C@H](O)CC[C@@H]1[C@H]2Cc3cccc(OCC(=O)OCCCF)c3C[C@H]2C[C@H]1O` [Compound 4, [2-Hydroxy-1-(3-hydroxy-octyl)-2,3,3a,4,9,9a-hexahydro-1H-cyclopenta[b]naphthalen-5-yloxy]-acetic acid 3-fluoro-propyl ester], the half-life at 0.5 uM in series [1] and in series [2] was below 15 min each time.

In the case of `CCCCC[C@H](O)CC[C@@H]1[C@H]2Cc3cccc(OCC(=O)OC)c3C[C@H]2C[C@H]1OC(=O)CCC(=O)OCC` [Compound 27, Succinic acid ethyl ester 1-(3-hydroxy-octyl)-5-methoxycarbonylmethoxy-2,3,3a,4,9,9a-hexahydro-1H-cyclopenta[b]naphthalen-2-yl ester], the half-life at 0.5 uM was below 15 min in series [1] and above 60 min in series [2].

As for `CCCCC[C@H](O)CC[C@@H]1[C@H]2Cc3cccc(OCC(=O)O[C@@H](C)C(C)C)c3C[C@H]2C[C@H]1O` [Compound 63], the half-life at 0.5 uM in series [1] was below 15 min; in series [2] it was 31 to 60 min; in series [3], 31 to 60 min.

Regarding `CCCCC[C@H](O)CC[C@@H]1[C@H]2Cc3cccc(OCC(=O)OC4CCOC4)c3C[C@H]2C[C@H]1O` (stereo partly shown) [Compound 5, [2-Hydroxy-1-(3-hydroxy-octyl)-2,3,3a,4,9,9a-hexahydro-1H-cyclopenta[b]naphthalen-5-yloxy]-acetic acid tetrahydro-furan-3-yl ester], the half-life at 0.5 uM in series [1] and in series [2] was below 15 min throughout.

For the compound `CCCCC[C@H](O)CC[C@@H]1[C@H]2Cc3cccc(OCC(=O)OCCO)c3C[C@H]2C[C@H]1O` [Compound 9, [2-Hydroxy-1-(3-hydroxy-octyl)-2,3,3a,4,9,9a-hexahydro-1H-cyclopenta[b]naphthalen-5-yloxy]-acetic acid 2-hydroxy-ethyl ester], the half-life at 0.5 uM in series [1] was below 15 min.

Consider `CCCCC[C@H](O)CC[C@@H]1[C@H]2Cc3cccc(OCC(=O)NCCN)c3C[C@H]2C[C@H]1O` [Compound 8, N-(2-Amino-ethyl)-2-[2-hydroxy-1-(3-hydroxy-octyl)-2,3,3a,4,9,9a-hexahydro-1H-cyclopenta[b]naphthalen-5-yloxy]-acetamide], for which the half-life at 0.5 uM in series [1] was 31 to 60 min.

As for `CCCCC[C@H](O)CC[C@@H]1[C@H]2Cc3cccc(OCC(=O)OC(C)C(C)C)c3C[C@H]2C[C@H]1O` (stereo partly shown) [Compound 17, [2-Hydroxy-1-(3-hydroxy-octyl)-2,3,3a,4,9,9a-hexahydro-1H-cyclopenta[b]naphthalen-5-yloxy]-acetic acid 1,2-dimethyl-propyl ester], the results for the half-life at 0.5 uM in series [1], in series [2] and in series [3] were below 15 min, 31 to 60 min and 15 to 30 min, respectively.

For the compound `CCCCC[C@H](O)CC[C@@H]1[C@H]2Cc3cccc(OCC(=O)NCC(F)(F)C(F)(F)F)c3C[C@H]2C[C@H]1O` [Compound 21, 2-[2-Hydroxy-1-(3-hydroxy-octyl)-2,3,3a,4,9,9a-hexahydro-1 H-cyclopenta[b]naphthalen-5-yloxy]-N-(2,2,3,3,3-pentafluoro-propyl)-acetamide], the half-life at 0.5 uM in series [1] is below 15 min; in series [2], above 60 min.

On to `CCCCC[C@H](O)CC[C@@H]1[C@H]2Cc3cccc(OCC(=O)OC(C)(C)C)c3C[C@H]2C[C@H]1O` [Compound 28, [2-Hydroxy-1-(3-hydroxy-octyl)-2,3,3a,4,9,9a-hexahydro-1H-cyclopenta[b]naphthalen-5-yloxy]-acetic acid tert-butyl ester], for which the results for the half-life at 0.5 uM in series [1] and in series [2] were below 15 min and 15 to 30 min, respectively.

For `CCCCC[C@H](O)CC[C@@H]1[C@H]2Cc3cccc(OCC(=O)O[C@H](C)C(C)C)c3C[C@H]2C[C@H]1O` [Compound 62], the half-life at 0.5 uM in series [1] is below 15 min; in series [2], 31 to 60 min; in series [3], above 60 min.

In the case of `CCCCC[C@H](O)CC[C@@H]1[C@H]2Cc3cccc(OCC(=O)OC)c3C[C@H]2C[C@H]1OC(C)=O` [Compound 26, [2-Acetoxy-1-(3-hydroxy-octyl)-2,3,3a,4,9,9a-hexahydro-1H-cyclopenta[b]naphthalen-5-yloxy]-acetic acid methyl ester], the half-life at 0.5 uM was below 15 min in series [1], 15 to 30 min in series [2] and 15 to 30 min in series [3].

Take `CCCCC[C@H](O)CC[C@@H]1[C@H]2Cc3cccc(OCC(=O)O[C@H](C)C(=O)OC)c3C[C@H]2C[C@H]1O` [Compound 6, 2-{2-[2-Hydroxy-1-(3-hydroxy-octyl)-2,3,3a,4,9,9a-hexahydro-1H-cyclopenta[b]naphthalen-5-yloxy]-acetoxy}-propionic acid methyl ester]: the half-life at 0.5 uM in series [1] and in series [2] was below 15 min each time.

Regarding `CCCCC[C@H](O)CC[C@@H]1[C@H]2Cc3cccc(OCC(=O)OCCOC)c3C[C@H]2C[C@H]1O` [Compound 10, [2-Hydroxy-1-(3-hydroxy-octyl)-2,3,3a,4,9,9a-hexahydro-1H-cyclopenta[b]naphthalen-5-yloxy]-acetic acid 2-methoxy-ethyl ester], the half-life at 0.5 uM in series [1] is below 15 min.

As for `CCCCC[C@H](O)CC[C@@H]1[C@H]2Cc3cccc(OCC(=O)OC)c3C[C@H]2C[C@H]1OC(=O)C1CC1` [Compound 24, Cyclopropanecarboxylic acid 1-(3-hydroxy-octyl)-5-methoxycarbonylmethoxy-2,3,3a,4,9,9a-hexahydro-1H-cyclopenta[b]naphthalen-2-yl ester], the half-life at 0.5 uM was below 15 min in series [1] and above 60 min in series [2].

`CCCCC[C@H](O)CC[C@@H]1[C@H]2Cc3cccc(OCC(=O)NCCCO)c3C[C@H]2C[C@H]1O` [Compound 11, 2-[2-Hydroxy-1-(3-hydroxy-octyl)-2,3,3a,4,9,9a-hexahydro-1H-cyclopenta[b]naphthalen-5-yloxy]-N-(3-hydroxy-propyl)-acetamide]: the half-life at 0.5 uM in series [1] was below 15 min; in series [2] it was above 60 min.

Take `CCCCC[C@H](O)CC[C@@H]1[C@H]2Cc3cccc(OCC(=O)OCC4CC4)c3C[C@H]2C[C@H]1O` [Compound 1, [2-Hydroxy-1-(3-hydroxy-octyl)-2,3,3a,4,9,9a-hexahydro-1H-cyclopenta[b]naphthalen-5-yloxy]-acetic acid cyclopropylmethyl ester]: the half-life at 0.5 uM in series [1] and in series [2] was below 15 min each time.

For the compound `CCCCC[C@H](O)CC[C@@H]1[C@H]2Cc3cccc(OCC(=O)OC)c3C[C@H]2C[C@H]1OC(=O)CC(C)C` [Compound 23, 3-Methyl-butyric acid 1-(3-hydroxy-octyl)-5-methoxycarbonylmethoxy-2,3,3a,4,9,9a-hexahydro-1H-cyclopenta[b]naphthalen-2-yl ester], the results for the half-life at 0.5 uM in series [1] and in series [2] were below 15 min and above 60 min, respectively.

Take `CCCCC[C@H](O)CC[C@@H]1[C@H]2Cc3cccc(OCC(=O)NCC(=O)OC)c3C[C@H]2C[C@H]1O` [Compound 12, {2-[2-Hydroxy-1-(3-hydroxy-octyl)-2,3,3a,4,9,9a-hexahydro-1H-cyclopenta[b]naphthalen-5-yloxy]-acetylamino}-acetic acid methyl ester]: the half-life at 0.5 uM in series [1] is below 15 min; in series [2], above 60 min.
